Measurements as given in PMC5839231, “Isolation and Characterization of Protein Tyrosine Phosphatase 1B (PTP1B) Inhibitory Polyphenolic Compounds From Dodonaea viscosa and Their Kinetic Analysis” (Frontiers in Chemistry, 2018).
Like-named read-outs stand apart in the source and are kept apart here.

Columns and labels:
[1] = molecular target: T1, Protein tyrosine phosphatase 1B (PTP1B) (Homo sapiens, UniProt P18031); experiment: PTP1B inhibitory assay (hydrolysis of p-nitrophenyl phosphate, 405 nm); type: biochemical; conditions: for IC50: pNPP substrate, 37°C, experiments repeated three times
T1 sequence (P18031 1-435): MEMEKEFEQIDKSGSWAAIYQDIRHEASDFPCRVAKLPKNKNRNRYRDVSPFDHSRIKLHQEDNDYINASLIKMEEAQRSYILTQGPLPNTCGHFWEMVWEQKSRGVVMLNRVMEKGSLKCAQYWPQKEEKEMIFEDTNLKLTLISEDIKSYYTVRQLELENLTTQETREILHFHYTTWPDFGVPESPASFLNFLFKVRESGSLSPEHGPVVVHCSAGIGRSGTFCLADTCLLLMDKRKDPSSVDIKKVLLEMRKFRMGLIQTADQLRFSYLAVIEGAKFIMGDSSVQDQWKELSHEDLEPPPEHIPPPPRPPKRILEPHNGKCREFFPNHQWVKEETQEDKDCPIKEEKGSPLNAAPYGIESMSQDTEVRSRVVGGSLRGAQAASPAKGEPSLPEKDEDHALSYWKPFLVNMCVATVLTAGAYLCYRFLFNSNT
Procedure: (§1) Protein tyrosine phosphatase 1B inhibitory assay was performed with slight modification to the previously reported method (Song et al., [2017]). Tris–HCl buffer (25 mM, pH 7.5) which contained 1 mM (ethylenediaminetetraacetic acid) EDTA, 1 mM dithiothreitol (DTT), and 2 mM β-mercaptoethanol was used as buffer solution, whereas p-nitrophenyl phosphate (pNPP), a substrate of PTP1B was utilized for enzyme activity measurement. Enzyme assay was started by mixing 10 μL of test compounds with 130 μL of Tris-HCl buffer solution in 96-well plate, then 20 μL of enzyme (EC 3.1.3.48, 1μg/mL), and finally 40 μL of substrate (4 mM pNPP) was added at 37°C for 10 min. During the substrate hydrolysis, pNPP was de-phosphorylated, giving product pNP, which was detected by Spectra Max M3 Multi-Mode Microplate reader (Molecular devices, USA) at a wavelength of 405 nm for 30 min. […] Kinetic parameters were determined by Line weaver-Burk and Dixon plots. Sigma Plot (SPCC Inc., Chicago, IL, USA) was utilized for data setting and calculation.

[2] = molecular target: T1, Protein tyrosine phosphatase 1B (PTP1B); experiment: PTP1B inhibitory kinetics (Lineweaver-Burk, Dixon and secondary plots); type: biochemical; conditions: for Type of inhibition: Lineweaver-Burk plots, substrate 0.437-1.75 mM pNPP
Procedure: as §1
In order to study detailed kinetics of PTP1B, Michaelis-Menten equation (4) is applied, who's reciprocal is taken which transform to a new equation, Line weaver-Burk equation (5). Using this equation Line weaver-Burk plots were constructed, which were applied for the analysis of inhibitory kinetics of test compounds. Different inhibitor concentrations accompanied with varying substrate concentrations were used for determination of enzymes steady-state rates, subsequently kinetic parameters related to PTP1B inhibition were also determined. The values of inhibitory constants KI and KIS, when free enzyme binds with inhibitor (KI) or enzyme-substrate-complex interact with inhibitor (KIS) were obtained from secondary plots of the slopes and vertical intercept (1/V^appmax) vs. inhibitors concentration. The representative Equations (1–3) were used to acquire KI and KIS values (Chiari et al., [2011]).
For inhibition parameters, an assay was performed having different substrate concentrations (0.437–1.75 mM), and several dilutions of tested compounds.
The effects of different concentrations of the bioactive active compounds on the hydrolysis of p-nitrophenyl phosphate by PTP1B were studied. We assayed different concentrations (3.75, 7.5, 15, 30, 60, and 120 μM) of inhibitors (1-9) with the given enzyme and substrate. As a result, we observed a gradual decrease in enzyme activity (% activity) with increasing inhibitors concentrations as shown in Figure 2A. […] Plots of residual enzyme activity vs. enzyme concentration at different concentrations (0, 6.7, 13.5, and 27 μM) of compound 4 gave a family of lines which intersected on x-axis at 0 intercept. […] In order to explore the mechanistic behavior and kinetic features of the tested compounds, detailed kinetic study was performed. For this purpose the target enzyme was assayed in different concentrations of substrate (0.437, 0.875, 1.75 mM), in the presence of several dilutions of the respective compound, been graphically presented in double reciprocal plots (Linweaver-Burk and Dixon plots). Representatively, here we have explained compound 4 in detail, the Lineweaver-Burk plots of (4) produced a family of straight lines which intersected on the left side of y-axis and above the x-axis as shown in Figure 3A. The inhibitory constants (KI and KIS) were obtained by plotting the slopes and intercepts vs. different concentrations of compound 4 (Figure 3A, insets). […] In kinetic plots the abscissa [I] is the concentration of compound, where the coordinate1/V represents reciprocal of enzyme activity.

[3] = from Dixon plots, read-out: Ki (inhibition constant)

Compound	IC50 [1]	Type of inhibition [2]	Ki [2, 3]	fold more potency than mother skeleton 1 ([1]; IC50 comparison with compound 1)	fold more potency than mother skeleton 2 ([1]; IC50 comparison with compound 2)	Reversibility of inhibition ([2]; residual enzyme activity vs. enzyme concentration at 0, 6.7, 13.5, 27 μM inhibitor)	KIS (inhibitor binding to enzyme-substrate complex) ([2]; secondary plot of intercepts vs. inhibitor concentration, Equation 3)	Ki ([2]; secondary plot of slopes vs. inhibitor concentration, Equation 2, read-out: KI (inhibitor binding to free enzyme))
COc1cc2oc(-c3ccc(O)cc3)c(OC)c(=O)c2c(O)c1OC [Compound 1, penduletin]	57.9 ± 0.6 µM	Mixed	27.3 µM					
COc1c(O)cc2oc(-c3ccc(O)cc3)c(OC)c(=O)c2c1O [Compound 3, viscosine]	18.7 ± 0.6 µM	Mixed	6.9 µM					
COc1ccc(-c2oc3cc(O)c(OC)c(O)c3c(=O)c2OC)cc1CC=C(C)C [Compound 4, 5,7-dihydroxy-3,6-dimethoxy-2-(4-methoxy-3-(3-methylbut-2-enyl)phenyl)-4H-chromen-4-one]	13.5 ± 0.3 µM	mixed type I	4.6 µM	6 fold	2.5 fold	reversible	26.4 ± 0.4 µM	4.1 ± 0.2 µM
C=C(C)C(O)Cc1cc(-c2oc3cc(O)c(OC)c(O)c3c(=O)c2OC)ccc1OC (centres unmarked) [Compound 5, 5,7-dihydroxy-3′-(2-hydroxy-3-methylbutenyl)-3,6,4′-trimethoxy-flavone]	28.4 ± 0.9 µM	Mixed	10.1 µM					
COc1ccc(-c2oc3cc(O)c(OC)c(O)c3c(=O)c2OC)cc1CCC(C)CO (centres unmarked) [Compound 6]	56 ± 0.3 µM	Mixed	22.8 µM					
COc1c(O)cc2oc(-c3ccc(O)c(CCC(C)CO)c3)c(OC)c(=O)c2c1O (centres unmarked) [Compound 7, 5,7,4′-trihydroxy-3′-(3-hydroxymethylbutyl)-3,6-dimethoxyflavone]	41.8 ± 0.5 µM	Mixed	14.3 µM					
CC1OC(OCC2OC(Oc3c(-c4ccc(O)cc4)oc4cc(O)cc(O)c4c3=O)C(O)C(O)C2O)C(O)C(O)C1O (centres unmarked) [Compound 8, Kaempferol 3-O-rutinoside]	20.5 ± 0.8 µM	Non-competitive	13 µM					
COc1cc(-c2oc3cc(O)cc(O)c3c(=O)c2OC2OC(COC3OC(C)C(O)C(O)C3O)C(O)C(O)C2O)ccc1O (centres unmarked) [Compound 9, Isorhamnetin3-O-robinobioside]	42.9 ± 0.4 µM	Non-competitive	26.4 µM					
